Consider one compound from patent US11555055B2, “Peptide inhibitors of insulin-degrading enzyme” (The Regents of the University of California, priority 2017, dated 2023).

This assay deals with primary murine skin fibroblasts. The experiment in a line: Insulin degradation in cultured skin fibroblasts, insulin in medium by ELISA. Format: cell-based, mouse. The note with it: 100 μM P12-3A, 10 nM insulin, up to day 4, logarithmically growing cells. As to the method: FIG. 4A-F. Effects of P12-3A on cultured skin cells. A, Insulin concentrations as a function of time in logarithmically growing primary murine skin fibroblasts in the absence or presence of P12-3A (100 μM). […] Data are mean±SEM of 4 independent replications. *P<0.05, **P<0.01. B, Proliferation of cells in the absence or presence of P12-3A (100 μM). […] C,D,E, P12-3A (100 μM) potentiates insulin-induced collagen production in skin fibroblasts. Collagen production was assessed by COL1A1 mRNA levels (C), levels of hydroxyproline secreted into the medium (D), and cell-associated mature alpha-1 type I collagen levels detected by Western blotting (E). […] Migration of HaCaT cells 48 h after induction of a scratch wound in the presence of the indicated quantities of insulin and/or P12-3A (100 μM). […]
Insulin promotes wound healing and overall skin health by affecting a number of processes, including cell proliferation (2,3), cell migration (5,6), and the production and secretion of ECM components, particularly type I collagen (7-13). We therefore assessed the ability of P12-3A to influence these processes in cultured skin fibroblasts and keratinocytes. To that end, primary mouse skin fibroblasts were grown for 4 d in multiple concentrations of insulin in the presence or absence of P12-3A, and insulin concentration over time was monitored by ELISA. […]

The structures appear in SMILES notation. Where a SMILES comes first, the peptide text is derived from it. Bridges are numbered along the chain shown (N, C = ends).

Turning to `CC(C)C[C@H](NC(=O)[C@H](CO)NC(=O)[C@@H](N)CCC(N)=O)C(=O)N1CCC[C@H]1C(=O)N[C@@H](Cc1c[nH]c2ccccc12)C(=O)N[C@H]1CSSC[C@@H](C(=O)N[C@H](C(=O)N[C@H](C(N)=O)[C@@H](C)O)C(C)C)NC(=O)[C@H](Cc2c[nH]cn2)NC(=O)[C@@H]2CCCN2C(=O)[C@H](Cc2ccc(O)cc2)NC1=O` [Peptide P12-3A] (H-QSLPWCYPHCVT-NH2; disulfide 6-10 (inferred)), the “insulin levels over time in cell culture” value is “remain constant”.
